From patent US20230106032A1, “IMIDAZOTRIAZINES ACTING ON CANCER VIA INHIBITION OF CDK12” (Bayer Aktiengesellschaft, priority 2020, published 2023)

Assays:
[1] = test system: BRCA1 mRNA expression in MDA-MB-231 cells; test: qRT-PCR assay: inhibition of BRCA1 mRNA expression in MDA-MB-231 cells; type: cell-based; conditions: Homo sapiens, 24 h exposure, normalised to GAPDH, read-out: RTqPCR-MDA-MB-231 IC50 [mol/l] BRCA1 (median)
Protocol: Tissue cultured human MDA-MB-231 human breast cancer cells were plated in 500 microL per well at 200,000 cells/well in a 24 well microtiter plate. After 24 h, the cells were exposed continuously for 24 h to test substances (substances were added with Tecan HP D300 Dispenser). RNA was prepared using Qiagen RNeasy MiniKit (#74106), RNA was quantified using a NanoDrop Equipment, and 600 nano gamms of RNA was converted to cDNA using a SuperScript VILO kit (Thermofisher #11755050) followed by qPCR amplification. BRCA1 and ATR gene expression was measured by RT-qPCR and normalised to GAPDH housekeeping gene expression. qPCR primer sets have been purchased from Thermo Fisher Scientific/Applied Biosystems: BRCA1, #Hs 01556193; ATR, #Hs 00992123; GAPDH, #Hs 03929097.

CDK12 = biological target: T1, CDK12 (Homo sapiens, UniProt Q9NYV4); test: CDK12 nuclear protein level: immunofluorescence/high content analysis in CAL-120 cells; type: cell-based; conditions: for DC50: CAL-120 cells, 24 h, nuclear CDK12 staining, read-out: CDK12 degradation IF DC50-[mol/l] (median); for (IC50 CDK12 high ATP) to (Degradation DC50 CDK12) ratio: IC50 CDK12 hATP (Table 2) divided by DC50 CDK12 IF (Table 8)
T1 construct: endogenous in cells; host or cells: CAL-120 human breast cancer cells (DSMZ ACC 459)
Protocol: In the context of the present invention, the term “DC50 CDK12” refers to the DC50 values obtained according to the assay described in this section (6) herein below, i.e. the DC50 values for the degradation of CDK12.
CAL-120 human breast cancer cells (DSMZ ACC 459) are seeded in 1536-well microtiter plates (800 cells per well) containing 50 nanoL of compounds in Dose-Response. Control wells received DMSO or Reference Example 1. Plates are then incubated for 24 h at 37° C. in an humidified incubator and fixed with 4% PFA for 10 min. Then immunofluorescence (IF) against CDK12 (CellSignalling CDK12 Antibody #11973, rabbit, 1:100 dilution) is performed using standard IF protocols. Cells are then stained with Hoechst 33342 (Life Technologies, H-1399, 0.1 microg/ml) and imaged on an automated confocal microscopy system (e.g. Perkin Elmer Opera Phenix). Nuclear and cytoplasmic intensity as well as the nuclear/cytoplasmic intensity ratio is determined by automated image analysis using custom generated scripts (MetaXpress). Data is then transferred to Genedata Screener software, normalized to DMSO and control and DC50 values (degrading concentration to achieve 50% reduction of nuclear CDK12 staining intensity relative to controls) are reported.

T1 sequence (Q9NYV4 whole entry): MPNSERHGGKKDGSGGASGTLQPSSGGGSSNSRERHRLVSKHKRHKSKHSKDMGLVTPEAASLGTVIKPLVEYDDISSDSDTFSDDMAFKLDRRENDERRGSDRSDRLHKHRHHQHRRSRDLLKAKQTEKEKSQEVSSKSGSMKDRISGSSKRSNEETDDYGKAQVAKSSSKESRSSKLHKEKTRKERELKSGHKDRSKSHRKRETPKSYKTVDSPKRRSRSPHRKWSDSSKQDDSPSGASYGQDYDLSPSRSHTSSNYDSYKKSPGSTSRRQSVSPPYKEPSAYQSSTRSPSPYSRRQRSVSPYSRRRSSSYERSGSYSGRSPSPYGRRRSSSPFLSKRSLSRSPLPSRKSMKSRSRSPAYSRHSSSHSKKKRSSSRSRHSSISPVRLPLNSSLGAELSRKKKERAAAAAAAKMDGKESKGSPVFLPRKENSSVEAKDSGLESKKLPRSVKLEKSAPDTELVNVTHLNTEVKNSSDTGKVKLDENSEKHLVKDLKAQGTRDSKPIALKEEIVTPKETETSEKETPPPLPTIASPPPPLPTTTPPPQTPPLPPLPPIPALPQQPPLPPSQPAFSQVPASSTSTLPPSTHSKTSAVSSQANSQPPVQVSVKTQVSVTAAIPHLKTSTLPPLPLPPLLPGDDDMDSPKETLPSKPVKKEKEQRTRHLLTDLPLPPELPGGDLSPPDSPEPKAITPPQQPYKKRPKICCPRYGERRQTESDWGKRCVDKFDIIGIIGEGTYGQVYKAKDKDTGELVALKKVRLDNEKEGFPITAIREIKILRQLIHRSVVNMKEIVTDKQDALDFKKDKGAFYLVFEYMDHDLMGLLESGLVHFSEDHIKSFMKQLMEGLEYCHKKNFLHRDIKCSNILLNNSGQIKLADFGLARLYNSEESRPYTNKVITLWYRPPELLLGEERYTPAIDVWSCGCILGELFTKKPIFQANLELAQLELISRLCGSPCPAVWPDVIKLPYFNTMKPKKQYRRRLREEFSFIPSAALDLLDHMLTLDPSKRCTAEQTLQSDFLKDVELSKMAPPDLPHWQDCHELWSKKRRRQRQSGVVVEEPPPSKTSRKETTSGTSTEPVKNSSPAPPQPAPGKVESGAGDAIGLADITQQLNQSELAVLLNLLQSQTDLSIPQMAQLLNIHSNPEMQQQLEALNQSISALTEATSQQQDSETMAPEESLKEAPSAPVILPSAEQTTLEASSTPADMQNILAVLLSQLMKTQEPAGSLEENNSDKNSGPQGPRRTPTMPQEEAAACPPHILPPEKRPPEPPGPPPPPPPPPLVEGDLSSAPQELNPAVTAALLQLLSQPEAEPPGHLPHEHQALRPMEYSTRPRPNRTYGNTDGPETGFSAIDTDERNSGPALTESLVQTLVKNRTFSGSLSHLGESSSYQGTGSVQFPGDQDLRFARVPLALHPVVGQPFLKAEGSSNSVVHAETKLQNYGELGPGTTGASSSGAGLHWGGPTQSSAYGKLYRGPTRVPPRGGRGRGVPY
T1 sequence (O75909 whole entry partner): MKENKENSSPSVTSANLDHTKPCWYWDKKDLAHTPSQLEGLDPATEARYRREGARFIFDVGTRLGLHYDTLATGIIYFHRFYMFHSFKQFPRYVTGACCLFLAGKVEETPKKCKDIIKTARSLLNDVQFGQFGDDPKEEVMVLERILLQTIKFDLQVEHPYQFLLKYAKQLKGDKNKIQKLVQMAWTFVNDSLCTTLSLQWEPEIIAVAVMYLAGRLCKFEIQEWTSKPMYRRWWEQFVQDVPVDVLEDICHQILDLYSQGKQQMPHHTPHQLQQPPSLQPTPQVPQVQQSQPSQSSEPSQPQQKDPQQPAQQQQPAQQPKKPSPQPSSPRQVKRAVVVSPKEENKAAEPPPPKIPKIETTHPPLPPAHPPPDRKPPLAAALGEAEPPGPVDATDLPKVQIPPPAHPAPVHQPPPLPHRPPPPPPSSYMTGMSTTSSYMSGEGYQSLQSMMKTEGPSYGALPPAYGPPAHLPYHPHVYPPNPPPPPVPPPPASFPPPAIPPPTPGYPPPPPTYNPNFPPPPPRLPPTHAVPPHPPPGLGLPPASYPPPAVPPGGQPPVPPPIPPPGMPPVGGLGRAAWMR

Row | Structure (SMILES) | DC50 (CDK12) | (IC50 CDK12 high ATP) to (Degradation DC50 CDK12) ratio (CDK12) | IC50 [1]
1 | Fc1ccc2[nH]c(CNc3nc(N4CCNCC4)nn4c(Br)cnc34)nc2c1F [Example 10, 7-bromo-N-[(4,5-difluoro-1H-benzimidazol-2-yl)methyl]-2-(piperazin-1-yl)imidazo[2,1-f][1,2,4]triazin-4-amine] | 0.132 nM | 10329 | 0.548 nM
2 | C[C@@H]1CN(c2nc(NCc3nc4cc(F)ccc4[nH]3)c3ncc(Br)n3n2)C[C@H](C)N1 [Example 19, 7-bromo-2-[rel-(3R,5S)-3,5-dimethylpiperazin-1-yl]-N-[(5-fluoro-1H-benzimidazol-2-yl)methyl]imidazo[2,1-f][1,2,4]triazin-4-amine] | 0.513 nM | 12546 | 0.886 nM
3 | C[C@@H]1CN(c2nc(NCc3nc4c(F)cccc4[nH]3)c3ncc(Br)n3n2)C[C@H](C)N1 [Example 18, 7-bromo-2-[rel-(3R,5S)-3,5-dimethylpiperazin-1-yl]-N-[(4-fluoro-1H-benzimidazol-2-yl)methyl]imidazo[2,1-f][1,2,4]triazin-4-amine] | 0.631 nM | 2854 | 1.98 nM
4 | COc1cccc2[nH]c(CNc3nc(N4C[C@@H](C)N[C@@H](C)C4)nn4c(Br)cnc34)nc12 [Example 14, 7-bromo-2-[rel-(3R,5S)-3,5-dimethylpiperazin-1-yl]-N-[(4-methoxy-1H-benzimidazol-2-yl)methyl]imidazo[2,1-f][1,2,4]triazin-4-amine] | 0.495 nM | 4066 | 1.47 nM
5 | Fc1cccc(-c2cnc3c(NCc4nc5ccccc5[nH]4)nc(N4CCOCC4)nn23)c1 [Example 3, N-[(1H-benzimidazol-2-yl)methyl]-7-(3-fluorophenyl)-2-(morpholin-4-yl)imidazo[2,1-f][1,2,4]triazin-4-amine] | 36 nM | >556 | > 100 nM
6 | Fc1ccc2[nH]c(CNc3nc(N4CCOCC4)nn4c(C(F)(F)F)cnc34)nc2c1F [Example 27, N-[(4,5-difluoro-1H-benzimidazol-2-yl)methyl]-2-(morpholin-4-yl)-7-(trifluoromethyl)imidazo[2,1-f][1,2,4]triazin-4-amine] | 1.1 nM | 10 | 1.05 nM
7 | C[C@@H]1CN(c2nc(NCc3nc4c(F)c(F)ccc4[nH]3)c3ncc(C(F)(F)F)n3n2)C[C@H](C)N1 [Example 29, N-[(4,5-difluoro-1H-benzimidazol-2-yl)methyl]-2-[rel-(3R,5S)-3,5-dimethylpiperazin-1-yl]-7-(trifluoromethyl)imidazo[2,1-f][1,2,4]triazin-4-amine] | 0.229 nM | 177 | 1.05 nM
8 | C[C@@H]1CN(c2nc(NCc3nc4c(F)c(F)ccc4[nH]3)c3ncc(Br)n3n2)C[C@H](C)N1 [Example 11, 7-bromo-N-[(4,5-difluoro-1H-benzimidazol-2-yl)methyl]-2-[rel-(3R,5S)-3,5-dimethylpiperazin-1-yl]imidazo[2,1-f][1,2,4]triazin-4-amine] | 0.111 nM | 5221 | 0.396 nM
9 | Fc1ccc2[nH]c(CNc3nc(N4CCOCC4)nn4c(Br)cnc34)nc2c1F [Example 7, 7-bromo-N-[(4,5-difluoro-1H-benzimidazol-2-yl)methyl]-2-(morpholin-4-yl)imidazo[2,1-f][1,2,4]triazin-4-amine] | 0.992 nM | 1272 | 6.36 nM
10 | C[C@@H]1CN(c2nc(NCc3nc4c(F)c(F)ccc4[nH]3)c3ncc(Br)n3n2)C[C@H](C)O1 [Example 5, 7-bromo-N-[(4,5-difluoro-1H-benzimidazol-2-yl)methyl]-2-[rel-(2R,6S)-2,6-dimethylmorpholin-4-yl]imidazo[2,1-f][1,2,4]triazin-4-amine] | 2.07 nM | 66 | 6.39 nM

The next lines start with results.

Row | DC50 (CDK12) | (IC50 CDK12 high ATP) to (Degradation DC50 CDK12) ratio (CDK12) | Structure (SMILES) | IC50 [1]
11 | 1.16 nM | 1790 | COc1cccc2[nH]c(CNc3nc(N4CCNCC4)nn4c(Br)cnc34)nc12 [Example 15, 7-bromo-N-[(4-methoxy-1H-benzimidazol-2-yl)methyl]-2-(piperazin-1-yl)imidazo[2,1-f][1,2,4]triazin-4-amine] | 2.36 nM
12 | 4.35 nM | 1084 | Fc1cccc2[nH]c(CNc3nc(N4CCOCC4)nn4c(Br)cnc34)nc12 [Example 12, 7-bromo-N-[(4-fluoro-1H-benzimidazol-2-yl)methyl]-2-(morpholin-4-yl)imidazo[2,1-f][1,2,4]triazin-4-amine] | –
13 | 3.55 nM | 3050 | CN1CCN(c2nc(NCc3nc4ccccc4[nH]3)c3ncc(C(F)(F)F)n3n2)CC1 [Example 25, N-[(1H-benzimidazol-2-yl)methyl]-2-(4-methylpiperazin-1-yl)-7-(trifluoromethyl)imidazo[2,1-f][1,2,4]triazin-4-amine] | 8.65 nM
14 | 1.96 nM | 1305 | Fc1cccc2[nH]c(CNc3nc(N4CCNCC4)nn4c(Br)cnc34)nc12 [Example 22, 7-bromo-N-[(4-fluoro-1H-benzimidazol-2-yl)methyl]-2-(piperazin-1-yl)imidazo[2,1-f][1,2,4]triazin-4-amine] | 0.884 nM
15 | 7.62 nM | 15 | OC[C@@H]1CCCCN1c1nc(NCc2nc3ccccc3[nH]2)c2ncc(Br)n2n1 [Example 17, [(2S)-1-(4-{[(1H-benzimidazol-2-yl)methyl]amino}-7-bromoimidazo[2,1-f][1,2,4]triazin-2-yl)piperidin-2-yl]methanol] | 15.7 nM
16 | 3.84 nM | >4836 | CN1CCN(c2nc(NCc3nc4ccccc4[nH]3)c3ncc(Br)n3n2)CC1 [Example 6, N-[(1H-benzimidazol-2-yl)methyl]-7-bromo-2-(4-methylpiperazin-1-yl)imidazo[2,1-f][1,2,4]triazin-4-amine] | 69 nM
17 | 2.78 nM | 5916 | CN1CCN(c2nc(NCc3nc4cc(F)ccc4[nH]3)c3ncc(Br)n3n2)CC1 [Example 21, 7-bromo-N-[(5-fluoro-1H-benzimidazol-2-yl)methyl]-2-(4-methylpiperazin-1-yl)imidazo[2,1-f][1,2,4]triazin-4-amine] | 3.11 nM
18 | 0.527 nM | 10707 | Brc1cnc2c(NCc3nc4ccccc4[nH]3)nc(N3CCNCC3)nn12 [Example 8, N-[(1H-benzimidazol-2-yl)methyl]-7-bromo-2-(piperazin-1-yl)imidazo[2,1-f][1,2,4]triazin-4-amine] | 3.4 nM
19 | 13 nM | 76 | C[C@@H]1CN(c2nc(NCc3nc4ccccc4[nH]3)c3ncc(Br)n3n2)C[C@H](C)O1 [Example 4, N-[(1H-benzimidazol-2-yl)methyl]-7-bromo-2-[rel-(2R,6S)-2,6-dimethylmorpholin-4-yl]imidazo[2,1-f][1,2,4]triazin-4-amine] | 25.9 nM
20 | 4.04 nM | 2680 | CN1CCN(c2nc(NCc3nc4c(F)cccc4[nH]3)c3ncc(Br)n3n2)CC1 [Example 23, 7-bromo-N-[(4-fluoro-1H-benzimidazol-2-yl)methyl]-2-(4-methylpiperazin-1-yl)imidazo[2,1-f][1,2,4]triazin-4-amine] | 3.12 nM
21 | 4.79 nM | 36 | FC(F)(F)c1cnc2c(NCc3nc4ccccc4[nH]3)nc(N3CCOCC3)nn12 [Example 26, N-[(1H-benzimidazol-2-yl)methyl]-2-(morpholin-4-yl)-7-(trifluoromethyl)imidazo[2,1-f][1,2,4]triazin-4-amine] | 3.64 nM
22 | 1.79 nM | 742 | COc1cccc2[nH]c(CNc3nc(N4CCOCC4)nn4c(Br)cnc34)nc12 [Example 13, 7-bromo-N-[(4-methoxy-1H-benzimidazol-2-yl)methyl]-2-(morpholin-4-yl)imidazo[2,1-f][1,2,4]triazin-4-amine] | 8.06 nM
